{"source": "patent US20160296529A1", "about": "“AMINOTRIAZOLOPYRIDINE FOR USE IN THE TREATMENT OF INFLAMMATION, AND PHARMACEUTICAL COMPOSITIONS THEREOF” (priority 2012, published 2016)", "key": {"rat CIA model": {"test_system": "rat CIA model", "assay": "CIA model 1 (rat collagen induced arthritis, clinical score)", "format": "in vivo, Dark Agouti rats", "parameters": "key to Rat CIA Clinical Score: sum of 4 paws, each 0 = no symptoms to 4 = maximal; max 16", "conditions": "for activity in the CIA rat model: dosed alone", "experimental": "Complete Freund's adjuvant (CFA) and Incomplete Freund's adjuvant (IFA) were purchased from Difco. Bovine collagen type II (CII), lipopolysaccharide (LPS), and Enbrel® was obtained from Chondrex (Isle d'Abeau, France); Sigma (P4252, L'Isle d'Abeau, France), Whyett (25 mg injectable syringe, France), Acros Organics (Palo Alto, Calif.), respectively. All other reagents used were of reagent grade and all solvents were of analytical grade.\nDark Agouti rats (male, 7-8 weeks old) were obtained from Harlan Laboratories (Melderslo, Netherlands). Rats were kept on a 12 hr light/dark cycle (0700-1900). Temperature was maintained at 22° C., and food and water were provided ad libitum.\nOne day before the experiment, CII solution (2 mg/mL) was prepared with 0.05 M acetic acid and stored at 4° C. Just before the immunization, equal volumes of adjuvant (IFA) and CII were mixed by a homogenizer in a pre-cooled glass bottle in an ice water bath. Extra adjuvant and prolonged homogenization may be required if an emulsion was not formed. 0.2 mL of the emulsion was injected intradermally at the base of the tail of each rat on day 1, a second booster intradermal injection (CII solution at 2 mg/mL in CFA 0.1 mL saline) was performed on day 9. This immunization method was modified from published methods (Sims et al, 2004; Jou et al., 2005).\nThe therapeutic effects of the compounds were tested in the rat CIA model. Rats were randomly divided into equal groups and each group contained 10 rats. All rats were immunized on day 1 and boosted on day 9. Therapeutic dosing lasts from day 16 to day 30. The negative control group was treated with vehicle (MC 0.5%) and the positive control group with Enbrel® (10 mg/kg, 3× week., s.c.). A compound of interest was typically tested at 3 doses, e.g. 6, 10, 60 mg/kg, q.d., p.o.\nArthritis was scored according to the method of Khachigian 2006, Lin et al 2007 and Nishida et al. 2004). The swelling of each of the four paws was ranked with the arthritic score as follows: 0—no symptoms; 1—mild, but definite redness and swelling of one type of joint such as the ankle or wrist, or apparent redness and swelling limited to individual digits, regardless of the number of affected digits; 2—moderate redness and swelling of two or more types of joints; 3—severe redness and swelling of the entire paw including digits; 4—maximally inflamed limb with involvement of multiple joints (maximum cumulative clinical arthritis score 16 per animal) (Nishida et al., 2004).\nTo permit the meta-analysis of multiple studies the clinical score values were normalised as follows:\nAUC of clinical score (AUC score): The area under the curve (AUC) from day 1 to day 14 was calculated for each individual rat. The AUC of each animal was divided by the average AUC obtained for the vehicle in the study from which the data on that animal was obtained and multiplied by 100 (i.e. the AUC was expressed as a percentage of the average vehicle AUC per study).\nClinical score increase from day 1 to day 14 (End point score): The clinical score difference for each animal was divided by the average clinical score difference obtained for the vehicle in the study from which the data on that animal was obtained and multiplied by 100 (i.e. the difference was expressed as a percentage of the average clinical score difference for the vehicle per study)."}, "hepatocytes of mouse": {"test_system": "hepatocytes of mouse", "assay": "In vitro metabolism study in hepatocytes, mouse", "format": "in vitro ADME", "conditions": "mouse hepatocyte suspension, 24 h incubation of 100 μM [14C]-Formula II", "experimental": "Hepatocyte stability (Concentrations of the compound according to Formula II and its main metabolites (as % of total radioactivity) after 24 h incubation of 100 μM [^14C]-Compound according to Formula II in hepatocyte suspension of different species)"}, "[1]": {"assay": "Repeated dose pharmacokinetics in human", "format": "in vivo", "conditions": "for Ratio I/II (AUC Formula I : AUC Formula II) / AUC: human, steady state; for half-life at 10 days: oral, human plasma, repeated dose of Formula II (25-100 mg BID or 200-450 mg QD) for 10 days, read-out: mean apparent terminal elimination half-life; for AUC: plasma, po, read-out: Exposure (expressed as AUC)", "experimental": "Subjects received repeated dose (25, 50 and 100 mg BID or 200, 300 and 450 mg QD) of the compound according to Formula II as capsules after a standard breakfast for 10 days.\nSerial blood samples were collected over 12 h (BID regimen) or 24 h (QD regimen) on day 1 and 10 to determine plasma concentrations of the compounds according to Formula II and Formula I using a validated liquid chromatography-mass spectrometry/mass spectrometry (LC-MS/MS) method with a limit of quantification of 1.00 ng/mL for both Formula. PK parameters were assessed using a statistical analysis package (WinNonLin (Pharsight, Sunnyvale, Calif.: CA 94086, USA).\nMean plasma concentration-time profiles of the compound according to Formula II and the compound according to Formula I were measured.\nIn order to show the comparative exposures of the two compounds, the AUC of the compounds according to Formula I and the compound according to Formula II were calculated. The AUC value represents the steady state exposure of the compounds after repeated dosing. The ratio of AUC of the compound according to Formula I:AUC of the compound according to Formula II is display in Table VII."}}, "note": "Read-outs that look alike come from different tables or passages of the source."}
{"compound": "Nc1nc2cccc(-c3ccc(CN4CCS(=O)(=O)CC4)cc3)n2n1", "note": "[Formula I, 5-[4-(1,1-Dioxothiomorpholin-4-ylmethyl)-phenyl]-[1,2,4]triazolo[1,5-a]pyridin-2-ylamine]", "values": [{"measurement": "normalized clinical score values (calculated as AUC or as the difference from day 1 to day 14)", "setting": "rat CIA model; 60 mg/kg", "result": "statistically significant improvements"}, {"measurement": "Rat CIA Clinical Score", "setting": "rat CIA model; Formula I 60 mg/kg, day 18", "result": 2.9}, {"measurement": "Rat CIA Clinical Score", "setting": "rat CIA model; Formula I 60 mg/kg, day 19", "result": 4.4}, {"measurement": "Rat CIA Clinical Score", "setting": "rat CIA model; Formula I 60 mg/kg, day 20", "result": 5.0}, {"measurement": "Rat CIA Clinical Score", "setting": "rat CIA model; Formula I 60 mg/kg, day 21", "result": 3.9}, {"measurement": "Rat CIA Clinical Score", "setting": "rat CIA model; Formula I 60 mg/kg, day 24", "result": 4.5}, {"measurement": "Rat CIA Clinical Score", "setting": "rat CIA model; Formula I 60 mg/kg, day 25", "result": 4.3}, {"measurement": "Rat CIA Clinical Score", "setting": "rat CIA model; Formula I 60 mg/kg, day 26", "result": 3.8}, {"measurement": "Rat CIA Clinical Score", "setting": "rat CIA model; Formula I 60 mg/kg, day 27", "result": 3.7}, {"measurement": "Rat CIA Clinical Score", "setting": "rat CIA model; Formula I 60 mg/kg, day 28", "result": 3.3}, {"measurement": "activity in the CIA rat model", "setting": "rat CIA model", "result": "active"}, {"measurement": "In vitro metabolic profile of Formula II (as % of total radioactivity)", "setting": "hepatocytes of mouse", "result": 14, "unit": "%"}, {"measurement": "Ratio I/II (AUC Formula I : AUC Formula II)", "setting": "[1]; Formula II 25 mg BID", "result": 24.4}, {"measurement": "Ratio I/II (AUC Formula I : AUC Formula II)", "setting": "[1]; Formula II 50 mg BID", "result": 20.5}, {"measurement": "Ratio I/II (AUC Formula I : AUC Formula II)", "setting": "[1]; Formula II 100 mg BID", "result": 18.3}, {"measurement": "Ratio I/II (AUC Formula I : AUC Formula II)", "setting": "[1]; Formula II 200 mg QD", "result": 16.1}, {"measurement": "Ratio I/II (AUC Formula I : AUC Formula II)", "setting": "[1]; Formula II 300 mg QD", "result": 15.0}, {"measurement": "Ratio I/II (AUC Formula I : AUC Formula II)", "setting": "[1]; Formula II 450 mg QD", "result": 10.1}, {"measurement": "half-life at 10 days", "setting": "[1]", "result": "22 to 27", "unit": "h"}, {"measurement": "AUC", "setting": "[1]; Formula II 25 mg BID", "result": 8660, "unit": "ng·h/mL"}, {"measurement": "AUC", "setting": "[1]; Formula II 50 mg BID", "result": 15200, "unit": "ng·h/mL"}, {"measurement": "AUC", "setting": "[1]; Formula II 100 mg BID", "result": 41100, "unit": "ng·h/mL"}, {"measurement": "AUC", "setting": "[1]; Formula II 200 mg QD", "result": 70000, "unit": "ng·h/mL"}, {"measurement": "AUC", "setting": "[1]; Formula II 300 mg QD", "result": 66100, "unit": "ng·h/mL"}, {"measurement": "AUC", "setting": "[1]; Formula II 450 mg QD", "result": 102000, "unit": "ng·h/mL"}]}
{"compound": "O=C(Nc1nc2cccc(-c3ccc(CN4CCS(=O)(=O)CC4)cc3)n2n1)C1CC1", "note": "[Formula II, Cyclopropanecarboxylic acid {5-[4-(1,1-dioxo-thiomorpholin-4-ylmethyl)-phenyl]-[1,2,4]triazolo[1,5-a]pyridin-2-yl}-amide]", "values": [{"measurement": "Rat CIA Clinical Score", "setting": "rat CIA model; Formula II 6 mg/kg, day 18", "result": 3.0}, {"measurement": "Rat CIA Clinical Score", "setting": "rat CIA model; Formula II 6 mg/kg, day 19", "result": 3.6}, {"measurement": "Rat CIA Clinical Score", "setting": "rat CIA model; Formula II 6 mg/kg, day 20", "result": 4.2}, {"measurement": "Rat CIA Clinical Score", "setting": "rat CIA model; Formula II 6 mg/kg, day 21", "result": 5.1}, {"measurement": "Rat CIA Clinical Score", "setting": "rat CIA model; Formula II 6 mg/kg, day 24", "result": 5.2}, {"measurement": "Rat CIA Clinical Score", "setting": "rat CIA model; Formula II 6 mg/kg, day 25", "result": 5.1}, {"measurement": "Rat CIA Clinical Score", "setting": "rat CIA model; Formula II 6 mg/kg, day 26", "result": 4.9}, {"measurement": "Rat CIA Clinical Score", "setting": "rat CIA model; Formula II 6 mg/kg, day 27", "result": 5.2}, {"measurement": "Rat CIA Clinical Score", "setting": "rat CIA model; Formula II 6 mg/kg, day 28", "result": 5.4}, {"measurement": "activity in the CIA rat model", "setting": "rat CIA model", "result": "active"}, {"measurement": "In vitro metabolic profile of Formula II (as % of total radioactivity)", "setting": "hepatocytes of mouse", "result": "at least 80%"}, {"measurement": "In vitro metabolic profile of Formula II (as % of total radioactivity)", "setting": "hepatocytes of mouse; listed as drawing 10", "result": 85, "unit": "%"}, {"measurement": "half-life at 10 days", "setting": "[1]", "result": "4 to 11", "unit": "h"}, {"measurement": "AUC", "setting": "[1]; Formula II 25 mg BID", "result": 346, "unit": "ng·h/mL"}, {"measurement": "AUC", "setting": "[1]; Formula II 50 mg BID", "result": 758, "unit": "ng·h/mL"}, {"measurement": "AUC", "setting": "[1]; Formula II 100 mg BID", "result": 2380, "unit": "ng·h/mL"}, {"measurement": "AUC", "setting": "[1]; Formula II 200 mg QD", "result": 4450, "unit": "ng·h/mL"}, {"measurement": "AUC", "setting": "[1]; Formula II 300 mg QD", "result": 4400, "unit": "ng·h/mL"}, {"measurement": "AUC", "setting": "[1]; Formula II 450 mg QD", "result": 10200, "unit": "ng·h/mL"}]}
